Active and inactive are the calls of the source. The calls are words filed in the database; no cut-off is given here.
Key:
[1] = tested on: HUVEC; assay: Cytoprotective activity against ox-LDL induced cell damage in human HUVEC cells assessed as increase in cell viability at 50 to 100 uM preincubated for 10 mins followed by ox-LDL stimulation measured after 24 hrs by MTT assay; type: functional, cell-based; conditions: dose microM 50-100, time 10.0 min
[2] = tested on: HUVEC; assay: Cytotoxicity against human HUVEC cells assessed as reduction in cell viability at 10 to 100 uM by MTT assay; type: cell-based; conditions: dose 10-100 µM
[3] = Prodrug release in phosphate buffer containing L-cysteine assessed as H2S release by measuring H2S releasing half-life at 60 uM by methylene blue method; type: ADME
[4] = tested on: H9c2; assay: Cytotoxicity against rat H9c2 cells assessed as reduction in cell viability after 48 hrs by MTT assay; type: cell-based; conditions: H9c2, 48 h
[5] = tested on: HUVEC; assay: Cytotoxicity against human HUVEC cells assessed as reduction in cell viability after 48 hrs by MTT assay; type: cell-based
[6] = tested on: RAW264.7; assay: Cytotoxicity against mouse RAW264.7 cells assessed as reduction in cell viability after 48 hrs by MTT assay; type: cell-based; conditions: RAW264.7, 48 h
[7] = tested on: WI-38; assay: Cytotoxicity against human WI38 cells assessed as reduction in cell viability after 48 hrs by MTT assay; type: cell-based; conditions: WI-38, 48 h
[8] = tested on: RAW264.7; assay: Anti-atherosclerotic activity in mouse RAW264.7 cells assessed as decrease in ox-LDL induced intracellular lipid accumulation by measuring reduction in total cholesterol level at 10 to 50 uM preincubated for 10 mins followed by ox-LDL stimulation and measured after 24 hrs by colorimetric method; type: functional, cell-based; conditions: dose microM 10-50, time 10.0 min
[9] = tested on: RAW264.7; assay: Anti-atherosclerotic activity in mouse RAW264.7 cells assessed as decrease in ox-LDL induced intracellular lipid accumulation by measuring reduction in free cholesterol level at 10 to 50 uM preincubated for 10 mins followed by ox-LDL stimulation and measured after 24 hrs by colorimetric method; type: functional, cell-based; conditions: dose microM 10-50, time 10.0 min
[10] = tested on: RAW264.7; assay: Antioxidant activity in mouse RAW264.7 cells assessed as reduction in ox-LDL induced ROS accumulation at 10 uM preincubated for 10 mins followed by ox-LDL stimulation and measured after 24 hrs by DCFH-DA staining based fluorescence microscopic analysis; type: functional, cell-based
[11] = tested on: RAW264.7; assay: Antioxidant activity in mouse RAW264.7 cells assessed as reduction in ox-LDL induced oxidative stress by measuring decrease in MDA level at 10 to 50 uM preincubated for 10 mins followed by ox-LDL stimulation and measured after 24 hrs; type: functional, cell-based; conditions: dose microM 10-50, time 10.0 min
[12] = tested on: RAW264.7; assay: Antioxidant activity in mouse RAW264.7 cells assessed as reduction in ox-LDL induced oxidative stress by measuring increase in SOD level at 10 to 50 uM preincubated for 10 mins followed by ox-LDL stimulation and measured after 24 hrs; type: functional, cell-based; conditions: dose microM 10-50, time 10.0 min
[13] = tested on: RAW264.7; assay: Anti-inflammatory activity in mouse RAW264.7 cells assessed as decrease in ox-LDL induced inflammatory reaction by measuring decrease in TNF-alpha production at 10 to 50 uM preincubated for 10 mins followed by ox-LDL stimulation and measured after 24 hrs; type: functional, cell-based; conditions: dose microM 10-50, time 10.0 min
[14] = tested on: RAW264.7; assay: Anti-inflammatory activity in mouse RAW264.7 cells assessed as decrease in ox-LDL induced inflammatory reaction by measuring increase in IL-10 production at 10 to 50 uM preincubated for 10 mins followed by ox-LDL stimulation and measured after 24 hrs; type: functional, cell-based; conditions: dose microM 10-50, time 10.0 min
[15] = tested on: RAW264.7; assay: Inhibition of macrophage foam cell formation in mouse RAW264.7 cells assessed as reduction in ox-LDL induced red lipid droplets formation at 10 uM preincubated for 10 mins followed by ox-LDL stimulation and measured after 24 hrs by oil red O staining based inverted microscopy analysis; type: functional

Row | SMILES | t1/2 [3] | Activity [1] | Activity [2] | IC50 [4] | IC50 [5] | IC50 [6] | IC50 [7] | Activity [8] | Activity [9] | Activity [10] | Activity [11] | Activity [12] | Activity [13] | Activity [14] | inhibition [15]
1 | O=C(NCCOC(=S)Nc1ccccc1)c1cccnc1 | 1.2 min | – | – | > 800 µM | 724 µM | > 800 µM | > 800 µM | – | – | – | – | – | – | – | –
2 | Cc1cnc(C(=O)OCCCOC(=O)CCCCC2CCSS2)c[n+]1[O-] (stereo not given) | 19.8 min | – | – | > 800 µM | > 800 µM | > 800 µM | > 800 µM | – | – | – | – | – | – | – | –
3 | COc1ccc(NC(=S)OCCNC(=O)c2cccnc2)cc1 | 0.8 min | – | – | 694 µM | 550 µM | > 800 µM | 781 µM | – | – | – | – | – | – | – | –
4 | O=C(O)c1cccnc1 | – | – | – | – | – | – | – | Active | Active | inactive | inactive | inactive | Active | Active | Active
5 | O=C(Oc1ccc(-c2cc(=S)ss2)cc1)c1cccnc1 | 3.3 min | – | – | 627 µM | 562 µM | > 800 µM | 734 µM | – | – | – | – | – | – | – | –

Now from value to compound, other results behind:

Row | t1/2 [3] | SMILES | Activity [1] | Activity [2] | IC50 [4] | IC50 [5] | IC50 [6] | IC50 [7] | Activity [8] | Activity [9] | Activity [10] | Activity [11] | Activity [12] | Activity [13] | Activity [14] | inhibition [15]
6 | 1.7 min | CC(C)(Oc1ccc(Cl)cc1)C(=O)NCCOC(=S)Nc1ccc([N+](=O)[O-])cc1Cl | Active | Non-Toxic | > 800 µM | 729 µM | > 800 µM | > 800 µM | – | – | – | – | – | – | – | –
7 | 3.9 min | Cc1cnc(C(=O)Oc2ccc(C(N)=S)cc2)c[n+]1[O-] | – | – | 780 µM | 714 µM | > 800 µM | > 800 µM | – | – | – | – | – | – | – | –
8 | 1 min | Cc1ccc(NC(=S)OCCNC(=O)C(C)(C)Oc2ccc(Cl)cc2)cc1 | – | – | 771 µM | 661 µM | > 800 µM | > 800 µM | – | – | – | – | – | – | – | –
9 | 5.6 min | CC(C)(Oc1ccc(Cl)cc1)C(=O)Oc1ccc(C(N)=S)cc1 | – | – | 797 µM | 755 µM | > 800 µM | > 800 µM | – | – | – | – | – | – | – | –
10 | 2.1 min | NC(=S)c1ccc(OC(=O)c2cccnc2)cc1 | – | – | 754 µM | 683 µM | > 800 µM | > 800 µM | – | – | – | – | – | – | – | –

From ChEMBL document CHEMBL4665663, “Anti-atherosclerosis effect of HS donors based on nicotinic acid and chlorfibrate structures” (Bioorg Med Chem, 2019)
